In patent US7129208B2, “Synthetic ion channels” (Washington University, priority 2002, dated 2006):
“And” between values parts separate entries of the source, which are not always exact repeats. Equal values may be shown once. The star is where a group is joined. (C18H37)2NCOCH2OCH2CO = CCCCCCCCCCCCCCCCCCN(CCCCCCCCCCCCCCCCCC)C(=O)COCC(=O)*; OBn = c1ccc(CO*)cc1

Assays:
[1] = Chloride release from liposomes (chloride-specific electrode); format: biochemical; details: for chloride release / efflux from liposomes: unilamellar liposomes 182±12 nm
Protocol: Liposomes were prepared by reverse-phase evaporation^26 as previously reported.^27 Cl^− release was determined with a resin, chloride-specific electrode. Ion transport, mediated by (C18H37)2NCOCH2OCH2CO-GGGPGGG-OCH2Ph (SEQ ID NO.: 2), was studied in unilamellar liposomes of 182±12 nm average dimension. […] Neither the anchor-GGGLGGG (SEQ ID NO.: 3) compound nor the anchor-GGG compound retains the kink believed to be present in (C18H37)2NCOCH2OCH2CO-GGGPGGG-OCH2Ph (SEQ ID NO.: 2) owing to the presence of the proline residue.
Substituting an impermeant external ion (SO4^=) for a permeant one (NO3^−) will generate a membrane potential that inhibits Cl^− release. Thus, replacing nitrate by sulfate in the aqueous medium produced a 5-fold reduction in chloride efflux (data not shown).

[2] = test system: RAW 264.7 cells; assay: Intracellular calcium, Fura-2 fluorescence ratio method; details: 46 μM or 92 μM applied at time zero
Protocol: We determined cell volume from 0.5 micron image stacks collected at 30 second intervals and calculated the time-dependent volume changes that are shown in FIG. 7B. […] RAW 264.7 cells (American Type Culture Collection, Manassas Va.) were plated into microscope chambers in Dulbeccos Minimal Essential Media with antibiotics and 10% fetal calf serum and allowed to recover over night at 5% CO2. Prior to experiment they were transferred to Hanks buffered saline (10 mM HEPES, pH 7.0) and placed into the thermostated microscope stage (37° C.) and permitted to equilibrate for 10 min. Cell volume was monitored and corrected for changes in cell geometry by optical sections at 0.5 micron steps from the glass surface to the top of the cell (typically 5–7 sections). Images were collected using a Zeiss 100 M Axovert microscope, a 12-bit Sensi-Cam, and analyzed using Slidebook 3.0 (Intelligent Imaging Innovations, Inc. Cambridge, Mass.). Cell volume was calculated by summing the intracellular surface for each image in the stack of sections. […] In FIG. 7B the cellular volume changes were followed by comparing sequential series of z-stacks from optical sections and normalized to total cell volume at the beginning of the experiment (t=0). […] Intracellular calcium was followed using Fura-2 fluorescence ratio method. […]

[3] = test system: RAW 264.7 cells; assay: Cell volume regulation in a monocytic cell line (optical sections)
Protocol: We determined cell volume from 0.5 micron image stacks collected at 30 second intervals and calculated the time-dependent volume changes that are shown in FIG. 7B. […] RAW 264.7 cells (American Type Culture Collection, Manassas Va.) were plated into microscope chambers in Dulbeccos Minimal Essential Media with antibiotics and 10% fetal calf serum and allowed to recover over night at 5% CO2. Prior to experiment they were transferred to Hanks buffered saline (10 mM HEPES, pH 7.0) and placed into the thermostated microscope stage (37° C.) and permitted to equilibrate for 10 min. Cell volume was monitored and corrected for changes in cell geometry by optical sections at 0.5 micron steps from the glass surface to the top of the cell (typically 5–7 sections). Images were collected using a Zeiss 100 M Axovert microscope, a 12-bit Sensi-Cam, and analyzed using Slidebook 3.0 (Intelligent Imaging Innovations, Inc. Cambridge, Mass.). Cell volume was calculated by summing the intracellular surface for each image in the stack of sections. […] In FIG. 7B the cellular volume changes were followed by comparing sequential series of z-stacks from optical sections and normalized to total cell volume at the beginning of the experiment (t=0). […] Intracellular calcium was followed using Fura-2 fluorescence ratio method. […] Depolarization dependent increase in cytosolic calcium was initiated by the switch to 100 mM KCl at 200 seconds (open triangle).

[4] = Voltage clamp in planar lipid bilayers; format: biochemical; details: for maximum conductance (chloride diffusion pathway): linear current-voltage relationship, 63 μM in b201
Protocol: The chloride selectivity of (C18H37)2NCOCH2OCH2CO-GGGPGGG-OCH2Ph (SEQ ID NO.: 2) was assessed by voltage clamp methods in planar phospholipid bilayers. Addition of (C18H37)2NCOCH2OCH2CO-GGGPGGG-OCH2Ph (SEQ ID NO.: 2) to planar bilayer lipids produced large currents within seconds in a 450:150 mM KCl ion gradient. The sign and the magnitude of this current indicated Cl^− transport by a nanoSiemen-sized channel. A linear current-voltage relationship gave a maximum conductance of 1.3±0.1 nS. The reversal potential, Erev, was 28±0.45 mV, corresponding to the calculated chloride Nernst potential, ECl, of 28.2 mV. This confirms the >10:1 Cl^−/K^+ selectivity observed in liposomes. The ion selectivity and conductivity indicate that (C18H37)2NCOCH2OCH2CO-GGGPGGG-OCH2Ph (SEQ ID NO.: 2) forms a large, stable, anion selective aqueous pore in bilayer membranes.
Planar lipid bilayers were formed by standard methods. (C18H37)2NCOCH2OCH2CO-GGGPGGG-OCH2Ph (SEQ ID NO.: 2) was applied to the cis chamber at 60 μM (micromolar) with a 450 mM/150 mM KCl gradient present across the membrane. Seconds later Cl^− currents appeared and voltage was varied from +20 to −2 mV. Fractional open time was computed using the computer programs Fetchan and pStat (Axon Instruments, CA).
The chloride selectivity of (C18H37)2NCOCH2OCH2CO-GGG-P-GGG-OCH2Ph (SEQ ID NO.: 2) was assessed by voltage clamp methods in planar lipid bilayers prepared as described in P. Schlesinger, et al., Proc. Natl. Acad. Sci. 94, 11357 (1997). The addition of 63 μM (C18H37)2NCOCH2OCH2CO-GGG-P-GGG-OCH2Ph (SEQ ID NO.: 2) produced large currents within seconds in a 450:150 mM KCl ion gradient (FIG. 8a). […] The reversal potential, Erev, was 28±0.45 mV, corresponding to the calculated chloride Nernst potential, ECl, of 28.2 mV (FIG. 8c). This confirms the >10:1 Cl^−/K^+ selectivity observed in liposomes. The ion selectivity and conductivity indicate that (C18H37)2NCOCH2OCH2CO-GGG-P-GGG-OCH2Ph (SEQ ID NO.: 2) forms a large, stable, anion selective aqueous pore in bilayer membranes.

[5] = Carboxyfluorescein fluorescence dequenching: pore activation and size, dextran block; format: biochemical
Protocol: Fluorescence dequenching was used to study pore activation and size as previously described in Saito et al. CF dequenching reflects the kinetics of pore activation and dequenching is accurately fit by this equation. Ft=F0+A1(1−e^−(t/τ))+mt
This exponential model requires that the concentration dependence of quenching will reflect the molecularity of pore activation (FIG. 9a, 9b). […] We infer therefore that at ˜100 μM, the active pore involves two molecules of (C18H37)2NCOCH2OCH2CO-GGG-P-GGG-OCH2Ph (SEQ ID NO.: 2). […] Size-specific dextran block (using ˜6–26 Å diameter molecules) confirmed an apparent pore diameter of 6.6 A (FIG. 9d, 9e) (M. Saito, S. J. Korsmeyer, P. H. Schlesinger, Nature Cell Biology, 553 (2000); S. Rex, G. Schwarz, Biochemistry37, 2336 (1998)).

[6] = Pore size from molecular models and bilayer conductance data

(H37C18)2NCOCH2OCH2CO-Gly-Gly-Gly-Leu-Gly-Gly-Gly-OCH2Ph ({(H37C18)2NCOCH2OCH2CO}-GGGLGGG-OBn) [anchor-GGGLGGG]
chloride release / efflux from liposomes [1]: dramatically reduced

(C18H37)2NCOCH2OCH2CO-Gly-Gly-Gly-OCH2Ph [(C18H37)2NCOCH2OCH2CO-GGG-OCH2Ph]
reduction of Cl- release ([1]; compared with the GGGPGGG compound): 6 fold

(C18H37)2NCOCH2OCH2CO-Gly-Gly-Gly-Pro-Gly-Gly-Gly-OCH2Ph ({(C18H37)2NCOCH2OCH2CO}-GGGPGGG-OBn; SMILES CCCCCCCCCCCCCCCCCCN(CCCCCCCCCCCCCCCCCC)C(=O)COCC(=O)NCC(=O)NCC(=O)NCC(=O)N1CCC[C@H]1C(=O)NCC(=O)NCC(=O)NCC(=O)OCc1ccccc1) [(C18H37)2NCOCH2OCH2CO-GGGPGGG-OCH2Ph]
change in cytosolic calcium [2]: small increases
cell volume decrease ([3]; 46 μM added at t=0, normalized to total cell volume at t=0): 20% and 20±0.5%
extent of cell volume decrease, of the initial cell volume ([3]; 100 μM): 20–25%
effect on cellular volume ([3]; mammalian cells): modulates cellular volume
voltage dependent gating ([4]; 60 μM in cis chamber, 450 mM/150 mM KCl gradient, voltage +20 to -2 mV): voltage dependent gating
reversal potential, Erev ([4]; 450:150 mM KCl ion gradient, calculated chloride Nernst potential 28.2 mV): 28±0.45 mV
maximum conductance (chloride diffusion pathway) ([4]; 450:150 mM KCl ion gradient): 1.3±0.1 nS
maximum conductance (chloride diffusion pathway) ([4]; 450:150 mM KCl ion gradient, listed as (C18H37)2NCOCH2OCH2CO-GGG-P-GGG-OCH2Ph): 1.3±0.01 nS
molecules in the active pore ([5]; at ~100 μM, inferred): two
apparent pore diameter ([5]; size-specific dextran block, ~6–26 Å diameter molecules): 6.6 A
reduction in chloride efflux on replacing nitrate by sulfate in the aqueous medium ([1]; external SO4 instead of NO3, data not shown): 5 fold
chloride release / efflux from liposomes [1]: rapid, concentration dependent, and went to completion
pore size ([6]; molecular models, conductance data and dextran block taken together): 6–8 Å
pore diameter ([6]; suggested by molecular models and bilayer conductance data): 6.5–8 Å

CC(C)[C@@H]1NC(=O)[C@H](C)OC(=O)[C@@H](C(C)C)NC(=O)[C@@H](C(C)C)OC(=O)[C@H](C(C)C)NC(=O)[C@H](C)OC(=O)[C@@H](C(C)C)NC(=O)[C@@H](C(C)C)OC(=O)[C@H](C(C)C)NC(=O)[C@H](C)OC(=O)[C@@H](C(C)C)NC(=O)[C@@H](C(C)C)OC1=O [valinomycin, reference compound]
effect on membrane potential inhibition of net chloride movement ([1]; added to liposomes with the channel compound in sulfate medium): permitted the remaining chloride to exit the liposomes
